What is called MIC is the smallest concentration in the dilution series that meets the test's criterion for growth inhibition.

≈ marks a conversion by molar mass, not a printed value. Where a name gives a salt, the structure may show the parent alone. Read-outs that look alike come from different tables or passages of the source.

The assay concerns pathogenic bacteria. Kind of assay: MIC by microdilution broth method (NCCLS M7-A4), in vitro antibacterial activity. The assay is classed as cell-based. As to the method:
Minimal inhibitory concentration (MIC) has been an indicator of in vitro antibacterial activity widely used in the art. The in vitro antimicrobial activity of the compounds was determined by the microdilution broth method following the test method from the National Committee for Clinical Laboratory Standards (NCCLS). This method is described in the NCCLS Document M7-A4, Vol. 17, No. 2, “Methods for Dilution Antimicrobial Susceptibility Test for Bacteria that Grow Aerobically—Fourth Edition”, which is incorporated herein by reference.
In this method two-fold serial dilutions of drug in cation adjusted Mueller-Hinton broth are added to wells in microdilution trays. The test organisms are prepared by adjusting the turbidity of actively growing broth cultures so that the final concentration of test organism after it is added to the wells is approximately 5×10^4 CFU/well.
Following inoculation of the microdilution trays, the trays are incubated at 35° C. for 16-20 hours and then read. […] The amount of growth in the wells containing the test compound is compared with the amount of growth in the growth-control wells (no test compound) used in each tray. As set forth in Table 5, compounds of the present invention were tested against a variety of pathogenic bacteria resulting in a range of activities depending on the organism tested.
Background: Dilution methods test growth across graded concentrations, often in twofold steps.

Where [1] appears, read: Staphylococcus aureus, Organism A: Staphylococcus aureus OC4172, read-out: MIC.
Where [2] appears, read: Streptococcus pneumoniae, ATCC49619, Organism E: Streptococcus pneumoniae ATCC 49619, read-out: MIC.
Setting [3] is: Streptococcus pneumoniae, Organism C: fluoroquinolone-resistant clinical isolate of Streptococcus pneumoniae (QRDR amino acid substitutions).
Setting [4] is: Streptococcus pneumoniae, Organism D: fluoroquinolone-resistant clinical isolate of Streptococcus pneumoniae (QRDR amino acid substitutions).
The mark [5] stands for this setting: Organism A: Staphylococcus aureus OC4172.
The mark [6] stands for this setting: Organism C: fluoroquinolone-resistant clinical isolate of Streptococcus pneumoniae (QRDR amino acid substitutions).
The mark [7] stands for this setting: Organism E: Streptococcus pneumoniae ATCC 49619.
Setting [8] is: Streptococcus pneumoniae, Organism B: fluoroquinolone-resistant clinical isolate of Streptococcus pneumoniae (QRDR amino acid substitutions).

`CCC(CN)=C1CCN(c2nc3c(cc2F)c(=O)c(C(=O)O)cn3C2CC2)CC1` [Compound 69, 7-[4-(1-Aminomethyl-propylidene)-piperidin-1-yl]-1-cyclopropyl-6-fluoro-4-oxo-1,4-dihydro-[1,8]naphthyridine-3-carboxylic acid]: the minimum inhibitory concentration (MIC) runs as follows: under setting [1], 0.06 mg/L (≈ 0.15 µM); under setting [2], 0.25 mg/L (≈ 0.624 µM); under setting [3], 1 mg/L (≈ 2.5 µM); under setting [4], 2 mg/L (≈ 4.99 µM).

Take `COc1c(N2CCC(=C(C)CN)CC2)c(F)cc2c(=O)c(C(=O)O)cn(C3CC3)c12` [Compound 70, 7-[4-(2-Amino-1-methyl-ethylidene)-piperidin-1-yl]-1-cyclopropyl-6-fluoro-8-methoxy-4-oxo-1,4-dihydro-quinoline-3-carboxylic acid]: the MIC came to 0.03 mg/L (≈ 0.0722 µM) under setting [5], 0.25 mg/L (≈ 0.602 µM) under setting [6], 0.12 mg/L (≈ 0.289 µM) under setting [7] and 0.25 mg/L (≈ 0.602 µM) under setting [4].

Turning to `CCC(CN)=C1CCN(c2c(F)cc3c(=O)c(C(=O)O)cn(C4CC4)c3c2OC)CC1` [Compound 71, 7-[4-(1-Aminomethyl-propylidene)-piperidin-1-yl]-1-cyclopropyl-6-fluoro-8-methoxy-4-oxo-1,4-dihydro-quinoline-3-carboxylic acid], the MIC was 0.03 mg/L (≈ 0.0698 µM) under setting [1], 0.12 mg/L (≈ 0.279 µM) under setting [2], 0.25 mg/L (≈ 0.582 µM) under setting [3] and 0.5 mg/L (≈ 1.16 µM) under setting [4].

As for `CNCC(Cl)=C1CCN(c2c(F)cc3c(=O)c(C(=O)O)cn(C4CC4)c3c2OC)CC1` [Compound 72, 7-[4-(1-Chloro-2-methylamino-ethylidene)-piperidin-1-yl]-1-cyclopropyl-6-fluoro-8-methoxy-4-oxo-1,4-dihydroquinoline-3-carboxylic Acid Trifluoroacetic Acid Salt], the MIC by setting is: (Staphylococcus aureus, Organism A: Staphylococcus aureus OC4172) 0.03 mg/L; (Streptococcus pneumoniae, ATCC49619, Organism E: Streptococcus pneumoniae ATCC 49619) 0.12 mg/L; under setting [8], 0.25 mg/L; under setting [3], 0.5 mg/L; under setting [4], 0.25 mg/L.

As to `NCC(Cl)=C1CCN(c2c(F)cc3c(=O)c(C(=O)O)cn(C4CC4)c3c2OC(F)F)CC1` [Compound 73, 7-[4-(2-Amino-1-chloro-ethylidene)-piperidin-1-yl]-1-cyclopropyl-8-difluoromethoxy-6-fluoro-4-oxo-1,4-dihydro-quinoline-3-carboxylic acid], the minimum inhibitory concentration (MIC) worked out at 0.06 mg/L (≈ 0.127 µM) under setting [1]; 0.12 mg/L (≈ 0.254 µM) under setting [2]; 0.5 mg/L (≈ 1.06 µM) under setting [8]; 1 mg/L (≈ 2.12 µM) under setting [3]; 0.25 mg/L (≈ 0.53 µM) under setting [4].

With `CNCC(C)=C1CCN(c2c(F)cc3c(=O)c(C(=O)O)cn(C4CC4)c3c2OC(F)F)CC1` [Compound 74, 1-Cyclopropyl-8-difluoromethoxy-6-fluoro-7-[4-(1-methyl-2-methylamino-ethylidene)-piperidin-1-yl]-4-oxo-1,4-dihydro-quinoline-3-carboxylic acid], the minimum inhibitory concentration (MIC) is, setting by setting: under setting [6], 1 mg/L (≈ 2.15 µM); under setting [7], 0.12 mg/L (≈ 0.258 µM); under setting [1], 0.06 mg/L (≈ 0.129 µM); under setting [4], 0.25 mg/L (≈ 0.537 µM).

For the molecule `CCNCC(Cl)=C1CCN(c2c(F)cc3c(=O)c(C(=O)O)cn(C4CC4)c3c2OC)CC1` [Compound 75, 7-[4-(1-Chloro-2-ethylamino-ethylidene)-piperidin-1-yl]-1-cyclopropyl-6-fluoro-8-methoxy-4-oxo-1,4-dihydro-quinoline-3-carboxylic acid], the MIC amounted to 0.12 mg/L (≈ 0.259 µM) under setting [1]; 0.25 mg/L (≈ 0.539 µM) under setting [2]; 1 mg/L (≈ 2.16 µM) under setting [8]; 1 mg/L (≈ 2.16 µM) under setting [3]; 1 mg/L (≈ 2.16 µM) under setting [4].

On to `NCC(Cl)=C1CCN1c1cc2c(cc1F)c(=O)c(C(=O)O)cn2C1CC1` [Compound 76, 7-[4-(2-Amino-1-chloro-ethylidene)-azetidin-1-yl}-1-cyclopropyl-6-fluoro-4-oxo-1,4-dihydro-quinoline-3-carboxylic acid], for which the MIC under setting [1] stood at 0.03 mg/L (≈ 0.0794 µM); the MIC under setting [2] turned out to be 0.25 mg/L (≈ 0.662 µM); inhibition of growth under setting [8] (MIC) required 2 mg/L (≈ 5.29 µM); 1 mg/L (≈ 2.65 µM) was the least that counted as inhibitory under setting [3] (MIC); 2 mg/L (≈ 5.29 µM) was the least that counted as inhibitory under setting [4] (MIC).

On to `C[C@H]1COc2c(N3CC(=C(Cl)CN)C3)c(F)cc3c(=O)c(C(=O)O)cn1c23` [Compound 77, 9-[3-(2-Amino-1-chloro-ethylidene)-azetidin-1-yl}-8-fluoro-(3S)-3-methyl-6-oxo-2,3-dihydro-6H-1-oxa-3a-aza-phenalene-5-carboxylic acid], for which the MIC under setting [1] was found to be 0.12 mg/L (≈ 0.305 µM); the MIC under setting [2] stood at 1 mg/L (≈ 2.54 µM); the MIC under setting [8] was 8 mg/L (≈ 20.3 µM); the MIC under setting [3] stood at 16 mg/L (≈ 40.6 µM); it took 16 mg/L (≈ 40.6 µM) to inhibit growth under setting [4] (MIC).

Regarding `COc1c(N2CCC(=C(F)CN)C(C)(C)C2)c(F)cc2c(=O)c(C(=O)O)cn(C3CC3)c12` [Compound 78, 7-[4-(2-Amino-1-fluoro-ethylidene)-3,3-dimethyl-piperidin-1-yl]-1-cyclopropyl-6-fluoro-8-methoxy-4-oxo-1,4-dihydro-quinoline-3-carboxylic acid], the minimum inhibitory concentration (MIC) runs as follows: under setting [1], 1 mg/L (≈ 2.23 µM); under setting [2], 0.25 mg/L (≈ 0.559 µM); under setting [8], 2 mg/L (≈ 4.47 µM); under setting [3], 1 mg/L (≈ 2.23 µM).

Regarding `CNCC(C)=C1CCN(c2nc3c(cc2F)c(=O)c(C(=O)O)cn3C2CC2)CC1` [Compound 79, 1-Cyclopropyl-6-fluoro-7-[4-(1-methyl-2-methylamino-ethylidene)-piperidin-1-yl]-4-oxo-1,4-dihydro-[1,8]naphthyridine-3-carboxylic acid], the MIC under setting [5] stood at 0.06 mg/L (≈ 0.15 µM), the MIC under setting [2] was 0.25 mg/L (≈ 0.624 µM), the minimum inhibitory concentration (MIC) under setting [3] worked out at 2 mg/L (≈ 4.99 µM) and inhibition of growth under setting [4] (MIC) required 1 mg/L (≈ 2.5 µM).

As to `NCC(F)=C1CN(c2nc3c(cc2F)c(=O)c(C(=O)O)cn3C2CC2)C1` [Compound 80, 7-[3-(2-Amino-1-fluoro-ethylidene)-azetidin-1-yl]-1-cyclopropyl-6-fluoro-4-oxo-1,4-dihydro-[1,8]naphthyridine-3-carboxylic acid], the MIC is, setting by setting: under setting [1], 0.06 mg/L (≈ 0.166 µM); under setting [2], 0.12 mg/L (≈ 0.331 µM); under setting [8], 0.5 mg/L (≈ 1.38 µM); under setting [3], 2 mg/L (≈ 5.52 µM); under setting [4], 1 mg/L (≈ 2.76 µM).

For the molecule `NCC(Cl)=C1CN(c2nc3c(cc2F)c(=O)c(C(=O)O)cn3C2CC2)C1` [Compound 81, 7-[3-(2-Amino-1-chloro-ethylidene)-azetidin-1-yl}-1-cyclopropyl-6-fluoro-4-oxo-1,4-dihydro-[1,8]naphthyridine-3-carboxylic acid], the minimum inhibitory concentration (MIC) reads like this: under setting [1], 0.06 mg/L (≈ 0.158 µM); under setting [2], 0.25 mg/L (≈ 0.66 µM); under setting [8], 1 mg/L (≈ 2.64 µM); under setting [3], 2 mg/L (≈ 5.28 µM); under setting [4], 2 mg/L (≈ 5.28 µM).

On to `NCC(F)=C1CN(c2c(F)cc3c(=O)c(C(=O)O)cn(C4CC4)c3c2OC(F)F)C1` [Compound 160, 7-[3-(2-Amino-1-fluoro-ethylidene)-azetidin-1-yl]-1-cyclopropyl-8-difluoromethoxy-6-fluoro-4-oxo-1,4-dihydro-quinoline-3-carboxylic acid], for which the MIC runs as follows: under setting [1], 0.06 mg/L (≈ 0.14 µM); under setting [2], 0.12 mg/L (≈ 0.281 µM); under setting [8], 2 mg/L (≈ 4.68 µM); under setting [3], 2 mg/L (≈ 4.68 µM); under setting [4], 1 mg/L (≈ 2.34 µM).

As for `O=C(O)c1cn(C2CC2)c2nc(N3CCC(=CCO)CC3)c(F)cc2c1=O` [Compound 163, 1-Cyclopropyl-6-fluoro-7-[4-(2-hydroxy-ethylidene)-piperidin-1-yl]-4-oxo-1,4-dihydro-[1,8]naphthyridine-3-carboxylic acid], the minimum inhibitory concentration (MIC) reads like this: under setting [1], 0.12 mg/L (≈ 0.321 µM); under setting [2], 1 mg/L (≈ 2.68 µM); under setting [8], 4 mg/L (≈ 10.7 µM); under setting [3], 4 mg/L (≈ 10.7 µM).

On to `O=C(O)c1cn(C2CC2)c2cc(N3CCC(=CCO)CC3)c(F)cc2c1=O` [Compound 164, 1-Cyclopropyl-6-fluoro-7-[4-(2-hydroxy-ethylidene)-piperidin-1-yl]-4-oxo-1,4-dihydro-quinoline-3-carboxylic acid], for which the minimal inhibitory concentration (MIC) under setting [1] is 0.12 mg/L (≈ 0.322 µM), the MIC under setting [2] turned out to be 2 mg/L (≈ 5.37 µM), the MIC under setting [8] was 32 mg/L (≈ 85.9 µM) and the minimum inhibitory concentration (MIC) under setting [3] was greater than 32 mg/L.

As to `CC(C)NCC(Cl)=C1CCN(c2nc3c(cc2F)c(=O)c(C(=O)O)cn3C2CC2)CC1` [Compound 166, 7-[4-(1-Chloro-2-isopropylamino-ethylidene)-piperidin-1-yl]-1-cyclopropyl-6-fluoro-4-oxo-1,4-dihydro-[1,8]naphthyridine-3-carboxylic acid], the MIC runs as follows: under setting [1], 0.5 mg/L (≈ 1.11 µM); under setting [2], 1 mg/L (≈ 2.23 µM); under setting [3], 4 mg/L (≈ 8.91 µM); under setting [4], 4 mg/L (≈ 8.91 µM).

As for `O=C(O)c1cn(C2CC2)c2nc(N3CCC(=C(F)CO)CC3)c(F)cc2c1=O` [Compound 172, 1-Cyclopropyl-6-fluoro-7-[4-(1-fluoro-2-hydroxy-ethylidene)-piperidin-1-yl]-4-oxo-1,4-dihydro-[1,8]naphthyridine-3-carboxylic acid], the MIC reads like this: under setting [1], 0.06 mg/L (≈ 0.153 µM); under setting [2], 1 mg/L (≈ 2.56 µM); under setting [8], 32 mg/L (≈ 81.8 µM); under setting [3], 16 mg/L (≈ 40.9 µM).

The values are drawn from patent US20090156577A1, “7-AMINO ALKYLIDENYL-HETEROCYCLIC QUINOLONES AND NAPHTHYRIDONES” (priority 2004, published 2009).
